Reference: PubChem BioAssay (NCI)
Several values for one entry are separate records, joined by “and”; a condition that tells them apart may be missing. Equal values may be shown once.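 Five compound concentrations were applied to cells in 96-well plates for 48 hours; endpoints were derived by simple linear interpolation of the resulting dose-response curve. GI50 = concentration required for 50% inhibition of growth. TGI: concentration producing complete growth inhibition.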

How the values were obtained:
Assay in all cases: NCI-60 cell line screen, 48 h
NCI-H226 lung = system: NCI-H226 lung
K-562 leukemia = system: K-562 leukemia
SR leukemia = system: SR leukemia
SK-OV-3 ovarian = system: SK-OV-3 ovarian
ACHN renal = system: ACHN renal
A498 renal = system: A498 renal
NCI-H522 lung = system: NCI-H522 lung
OVCAR-8 ovarian = system: OVCAR-8 ovarian
U251 CNS = system: U251 CNS
PC-3 prostate = system: PC-3 prostate

Structure (SMILES)	TGI (NCI-H226 lung) [µM]	TGI (K-562 leukemia) [µM]	TGI (SR leukemia) [µM]	TGI (SK-OV-3 ovarian)	TGI (ACHN renal) [µM]	TGI (A498 renal)	TGI (NCI-H522 lung) [µM]	TGI (OVCAR-8 ovarian)	TGI (U251 CNS)	GI50 (SR leukemia) [µM]	GI50 (ACHN renal) [µM]	GI50 (A498 renal) [µM]	GI50 (NCI-H522 lung)	GI50 (OVCAR-8 ovarian) [µM]	GI50 (NCI-H226 lung) [µM]	GI50 (K-562 leukemia)	GI50 (SK-OV-3 ovarian) [µM]	GI50 (U251 CNS) [µM]	GI50 (PC-3 prostate) [µM]	TGI (PC-3 prostate) [µM]
[N-]=[N+]=NC12CC3C4CC5CC3C(C1)C(C5)C4C2	> 100	> 100	> 100	> 100 µM	> 100	> 100 µM	> 100	> 100 µM	> 100 µM	–	–	–	–	–	–	–	–	–	–	–
O=[N+]([O-])c1ccc(C2=Nn3cnnc3SC2)o1	67.2	42.3	39.4	–	29.4	32.3 µM	–	53.9 µM	30.1 µM	–	–	–	–	–	–	–	–	–	–	–
COC1(OC)CC2C(=O)N(Cc3ccccc3)C1C(S(=O)(=O)c1ccccc1)C2S(=O)(=O)c1ccccc1 (stereo not drawn)	35.2	46.2	85.4	54.2 µM	22.4	58.2 µM	5.12	23.4 µM	27.2 µM	–	–	–	–	–	–	–	–	–	–	–
Cc1nn(-c2ccccc2)c2nc(N3CCOCC3)nnc12	–	> 100	–	> 100 µM	> 100	> 100 µM	–	> 100 µM	> 100 µM	–	–	–	–	–	–	–	–	–	–	–
CCCCC(C(=O)C(=O)NC1C2CC3CC(C2)CC1C3)C(=O)C(C)C (stereo not drawn)	> 100	> 100	> 100	> 100 µM	> 100	> 100 µM	> 100	> 100 µM	> 100 µM	–	–	–	–	–	–	–	–	–	–	–
COc1ccc2c3c([nH]c2c1[N+](=O)[O-])C(C)=NCC3	> 100	> 100	> 100	–	> 100	> 100 µM	> 100	> 100 µM	> 100 µM	–	–	–	–	–	–	–	–	–	–	–
CN1CCN(CCOc2ccc(-c3cnc4c(-c5ccccc5F)cnn4c3)cc2)CC1	–	–	> 100	–	2.96	2.9 µM	3.39	10.6 µM	–	2.59	1.61	1.43	1.69 µM	2.92	–	–	–	–	–	–
O=S1(=O)C[C@H](O)[C@H](O)CS1	> 100	> 100	> 100	> 100 µM	> 100	> 100 µM	> 100	> 100 µM	> 100 µM	–	–	–	–	–	–	–	–	–	–	–
COC(=O)C1=C(O)c2cc(OC)c(OC)cc2C(c2ccc(OC)c(OC)c2)C1 (stereo not drawn)	> 100	> 100	> 100	> 100 µM	> 100	98.2 µM	–	> 100 µM	> 100 µM	–	–	–	–	–	–	–	–	–	–	–
CC(C)N(C(=O)C12C3C4C5(C#N)C3C1(C#N)C5C42I)C(C)C (stereo not drawn)	> 100	> 59.4	38.2	> 100 µM	> 100	> 100 µM	> 100	> 100 µM	> 100 µM	–	–	–	–	–	–	–	–	–	–	–
CC(C)(C)CC(C)(C)c1cc2c(O)c(c1)Cc1cc(C(C)(C)CC(C)(C)C)cc(c1O)Cc1cc(C(C)(C)CC(C)(C)C)cc(c1O)Cc1cc(C(C)(C)CC(C)(C)C)cc(c1O)C2	–	> 100	–	–	> 100	–	> 100	> 100 µM	> 100 µM	–	–	–	–	–	–	–	–	–	–	–
CN(C)/C=N/c1nc2c(ncn2C2OC(CO)C(O)C2O)c(=O)[nH]1 (stereo not drawn)	> 100	> 100	> 100	> 100 µM	> 100	> 100 µM	–	> 100 µM	> 100 µM	–	–	–	–	–	–	–	–	–	–	–
CC1=NNC(=O)C2CCC(=O)N12 (stereo not drawn)	> 100	> 100	> 100	> 100 µM	> 100	> 100 µM	> 100	> 100 µM	> 100 µM	–	–	–	–	–	–	–	–	–	–	–
N#Cc1nc(Nc2cccc3ccccc23)sc1N	> 100	> 100	27.8	> 100 µM	75.3	–	46.4	> 100 µM	52.9 µM	–	–	–	–	–	–	–	–	–	–	–
Cc1cc([N+](=O)[O-])ccc1Nc1cccc(Cl)c1C	34.9	33.8	40.4	47.7 µM	41.4	29 µM	31	30.3 µM	29.8 µM	–	–	–	–	–	–	–	–	–	–	–
CC(C)CCN1c2nc(Nc3cc(F)c(O)c(F)c3)ncc2N(C)C(=O)C1C (stereo not drawn)	41.2	> 33.3	–	> 100 µM	> 59.5	54.6 µM	22.4	> 100 µM	58.6 µM	–	3.21	18.3	2.52 µM	17.6	17.4	2.63 µM	2.89	5.55	–	–
CCC[CH2][Sn]1([CH2]CCC)[O]N=C(c2ccccc2)C(c2ccccc2)[O]1 (stereo not drawn)	5.59	2.38	3.59	12.7 µM	3.1	4.82 µM	1.47	3.96 µM	2.9 µM	0.574	1.72	2.59	0.362 µM	1.87	2.09	0.387 µM	3.84	1.54	–	–
COc1cc(C(Cc2ccccc2)NC(C)=O)oc(=O)c1 (stereo not drawn)	> 100	> 100	–	> 100 µM	> 100	> 100 µM	> 100	> 100 µM	> 100 µM	–	–	–	–	–	–	–	–	–	–	–

Structure (SMILES)	TGI (NCI-H226 lung) [µM]	TGI (K-562 leukemia) [µM]	TGI (SR leukemia) [µM]	TGI (SK-OV-3 ovarian)	TGI (ACHN renal) [µM]	TGI (A498 renal)	TGI (NCI-H522 lung) [µM]	TGI (OVCAR-8 ovarian)	TGI (U251 CNS)	GI50 (SR leukemia) [µM]	GI50 (ACHN renal) [µM]	GI50 (A498 renal) [µM]	GI50 (NCI-H522 lung)	GI50 (OVCAR-8 ovarian) [µM]	GI50 (NCI-H226 lung) [µM]	GI50 (K-562 leukemia)	GI50 (SK-OV-3 ovarian) [µM]	GI50 (U251 CNS) [µM]	GI50 (PC-3 prostate) [µM]	TGI (PC-3 prostate) [µM]
S=C(Nc1ccccc1)N(/N=C/C=C/c1ccccc1)c1nnc(-c2ccccc2)c(-c2ccccc2)n1	> 100	> 100	–	> 100 µM	> 100	> 100 µM	> 100	> 100 µM	> 100 µM	–	–	–	–	–	–	–	–	–	–	–
C=CCCCCC/C=C\[C@H](O)C#CC#C/C=C/CO	31	–	–	> 100 µM	> 100	51.9 µM	45.4	52 µM	77.3 µM	–	> 100	20.3	19.3 µM	20.2	15.2	–	> 100	24.5	18.6	36.1
O=C(/C=C/c1ccccc1O)c1ccccc1O	> 100	> 100	–	> 100 µM	> 100	> 100 µM	> 100	> 100 µM	> 100 µM	–	–	–	–	–	–	–	–	–	–	–
Cc1ccc(Cc2c(=O)[nH]nc3ccccc23)cc1	> 100	> 100	–	> 100 µM	> 100	> 100 µM	–	> 100 µM	–	–	–	–	–	–	–	–	–	–	–	–
CC(C)c1ccc2c(c1)CC[C@@H]1[C@@](C)(C(=O)O)CCC[C@]21C	–	9.2	–	21.4 µM	23.5	–	–	7.87 µM	18.3 µM	–	11.4	–	–	2.16	–	2.5 µM	4.49	4.54	7.62	82.6
Cc1nc2c(-c3cnc(N)nc3)nc(N3CCOCC3)nc2n1C(C)C	–	> 100	–	0.57 µM and 0.226 µM	> 100	0.156 µM and 0.0587 µM	–	> 5.51 µM and 4.37 µM	> 10 µM and 37.7 µM	–	–	–	0.137 µM and 0.138 µM	–	–	1 µM and 0.661 µM	–	–	–	> 100
COC(=O)c1cc2c(s1)C(=O)c1ccccc1-2	> 100	> 100	–	> 100 µM	> 100	> 100 µM	> 100	> 100 µM	> 100 µM	–	–	–	–	–	–	–	–	–	–	–
COC(=O)C(=Cc1cc(OC)ccc1OC)C(=O)OC	> 100	53.6	–	76.2 µM	35.1	–	34.4	> 100 µM	42.9 µM	–	–	–	–	–	–	–	–	–	–	–
Cc1ccc(S(=O)(=O)N(CC(=O)O)c2ccccc2)cc1	–	> 100	–	> 100 µM	> 100	> 100 µM	> 100	> 100 µM	> 100 µM	–	–	–	–	–	–	–	–	–	–	–
CO/N=C/c1cc(OC)c(OC)c(OC)c1	> 100	> 100	> 100	> 100 µM	> 100	> 100 µM	> 100	> 100 µM	> 100 µM	–	–	–	–	–	–	–	–	–	–	–
CCCN=C(N)NC#N	> 100	> 100	77.2	> 100 µM	> 100	> 100 µM	> 100	> 100 µM	> 100 µM	–	–	–	–	–	–	–	–	–	–	–
CC1(C)COC(c2cccnc2/C=N/O)=N1	> 100	> 100	> 100	> 100 µM	> 100	> 100 µM	> 100	> 100 µM	> 100 µM	–	–	–	–	–	–	–	–	–	–	–
CCOc1ccccc1C=C1c2ccccc2C(=O)c2ccccc21	–	> 100	–	8.67 µM	> 100	> 100 µM	6.57	43 µM	> 100 µM	–	–	–	–	–	–	–	–	–	–	–
N#CC(N)(C(=O)CCC(=O)Nc1cccc(Cl)c1)c1ccc(Cl)cc1 (stereo not drawn)	> 100	> 100	> 100	> 100 µM	> 100	> 100 µM	> 100	> 100 µM	> 100 µM	–	–	–	–	–	–	–	–	–	–	–
Cc1ccc(NC(=O)C(=O)C(C(=O)c2ccc3ccccc3c2)C2OC(=O)c3ccccc32)cc1C (stereo not drawn)	11	59.7	–	> 100 µM	> 100	31 µM	–	66.2 µM	33.2 µM	–	–	–	–	–	–	–	–	–	–	–
NC(=O)NC1C(c2ccccc2)=C1c1ccccc1	25.1	43.1	–	38.2 µM	31.2	39.9 µM	–	25.5 µM	32.7 µM	–	–	–	–	–	–	–	–	–	–	39.4
CN(C)c1nc2ccccc2[nH]1	–	> 100	–	> 100 µM	> 100	–	> 100	> 100 µM	> 100 µM	–	–	–	–	–	–	–	–	–	–	–
O=C(CCn1[nH]c(=O)c(Cl)c(Cl)c1=O)NO	> 100	> 100	–	> 100 µM	> 100	> 100 µM	> 100	> 100 µM	> 100 µM	–	–	–	–	–	–	–	–	–	–	–
